Article PMC11912475 (Journal of Medicinal Chemistry, 2025)

Key:
[1] = molecular target: GluN1-GluN2C NMDAR subtype (Homo sapiens, UniProt Q05586+Q14957); assay: FLIPR/Ca2+ assay, NMDAR GluN1-GluN2C subtype in CHO cells; assay type: cell-based; settings: CHO cells, 10 μM L-glutamate and 10 μM glycine, n.d. = 50% of inhibition could not be reached at the highest concentration used
Description: (§1) These compounds were assessed for their effects on specific heterodimeric NMDAR subtypes stably overexpressed in Chinese Hamster Ovary (CHO) cells. The subtypes tested included GluN1-GluN2A, GluN1-GluN2B, GluN1-GluN2C, and GluN1-GluN2D. CHO cells expressing each of the four NMDAR subtypes were incubated with 10 μM L-glutamate, a concentration known to elicit maximal Ca^2+ influx, serving as the stimulus. Intracellular Ca^2+ levels were subsequently measured to determine the extent of NMDAR activation.
(§2) Assay buffer composition was 145 mM NaCl, 5 mM KCl, 2 mM CaCl2, 1 g/Liter D-(+)-glucose, and 20 mM HEPES (pH 7.3 adjusted with NaOH). Cells were plated at a density of 15.000/well in 384 black/clear bottom plates. […] Cells were kept at 30 °C in 5% CO2 incubator for 24 h. Cells were preloaded for 1 h with 2 μM Fluo-4 Ca^2+-sensitive probe, simultaneously with 2.5 mM probenecid, an inhibitor of nonspecific anion transport, and 500 μM ketamine to avoid cytotoxicity. […] Intracellular Ca^2+ level was monitored by FLIPR (excitation wavelength at 470–495 nm, emission wavelength at 515–575 nm) for 10 s before and 5 min after the addition of test items. All test items, including L-glutamate and glycine, were added simultaneously. […] FLIPR data were normalized as 100%, in the presence of 10 μM L-glutamate and 10 μM glycine, while as 0%, in the presence of assay buffer. […] Then, data were normalized by Excel 2013 (Microsoft Office) software, using wells added with 10 μM L-glutamate plus 10 μM glycine (column 23) as high control, and wells added with assay buffer only (column 24) as low control. To assess plate quality, Z′ calculations were performed in Excel. Z′ was calculated according to following equation: Z′ = 1–3(σh + σl)/|μh – μL| where μ and σ are the means and the standard deviations of the means of high (h) and low (l) controls, respectively. Compound concentration–response curves were plotted by Prism 8 GraphPad software, in the different experimental conditions (see Supporting Information). Data were analyzed using least-squares regression fitting, to fit data to a standard four parameters logistic equation using GraphPad Prism10. This regression fitting allowed the calculation of pIC50 and the corresponding SEM.

[2] = molecular target: T1, GluN1-GluN2B NMDAR subtype (Homo sapiens, UniProt Q05586+Q13224); assay: FLIPR/Ca2+ assay, NMDAR GluN1-GluN2B subtype in CHO cells; assay type: cell-based; settings: CHO cells, 10 μM L-glutamate and 10 μM glycine, n.d. = 50% of inhibition could not be reached at the highest concentration used
T1 construct: host or cells: NR1-2B-CHO cells, constitutive expression
Description: as §1, §2

[3] = molecular target: GluN1-GluN2D NMDAR subtype (Homo sapiens, UniProt O15399+Q05586); assay: FLIPR/Ca2+ assay, NMDAR GluN1-GluN2D subtype in CHO cells; assay type: cell-based; settings: CHO cells, 10 μM L-glutamate and 10 μM glycine, n.d. = 50% of inhibition could not be reached at the highest concentration used
GluN1-GluN2D NMDAR subtype, sequence (O15399 28-1336, other chains not shown): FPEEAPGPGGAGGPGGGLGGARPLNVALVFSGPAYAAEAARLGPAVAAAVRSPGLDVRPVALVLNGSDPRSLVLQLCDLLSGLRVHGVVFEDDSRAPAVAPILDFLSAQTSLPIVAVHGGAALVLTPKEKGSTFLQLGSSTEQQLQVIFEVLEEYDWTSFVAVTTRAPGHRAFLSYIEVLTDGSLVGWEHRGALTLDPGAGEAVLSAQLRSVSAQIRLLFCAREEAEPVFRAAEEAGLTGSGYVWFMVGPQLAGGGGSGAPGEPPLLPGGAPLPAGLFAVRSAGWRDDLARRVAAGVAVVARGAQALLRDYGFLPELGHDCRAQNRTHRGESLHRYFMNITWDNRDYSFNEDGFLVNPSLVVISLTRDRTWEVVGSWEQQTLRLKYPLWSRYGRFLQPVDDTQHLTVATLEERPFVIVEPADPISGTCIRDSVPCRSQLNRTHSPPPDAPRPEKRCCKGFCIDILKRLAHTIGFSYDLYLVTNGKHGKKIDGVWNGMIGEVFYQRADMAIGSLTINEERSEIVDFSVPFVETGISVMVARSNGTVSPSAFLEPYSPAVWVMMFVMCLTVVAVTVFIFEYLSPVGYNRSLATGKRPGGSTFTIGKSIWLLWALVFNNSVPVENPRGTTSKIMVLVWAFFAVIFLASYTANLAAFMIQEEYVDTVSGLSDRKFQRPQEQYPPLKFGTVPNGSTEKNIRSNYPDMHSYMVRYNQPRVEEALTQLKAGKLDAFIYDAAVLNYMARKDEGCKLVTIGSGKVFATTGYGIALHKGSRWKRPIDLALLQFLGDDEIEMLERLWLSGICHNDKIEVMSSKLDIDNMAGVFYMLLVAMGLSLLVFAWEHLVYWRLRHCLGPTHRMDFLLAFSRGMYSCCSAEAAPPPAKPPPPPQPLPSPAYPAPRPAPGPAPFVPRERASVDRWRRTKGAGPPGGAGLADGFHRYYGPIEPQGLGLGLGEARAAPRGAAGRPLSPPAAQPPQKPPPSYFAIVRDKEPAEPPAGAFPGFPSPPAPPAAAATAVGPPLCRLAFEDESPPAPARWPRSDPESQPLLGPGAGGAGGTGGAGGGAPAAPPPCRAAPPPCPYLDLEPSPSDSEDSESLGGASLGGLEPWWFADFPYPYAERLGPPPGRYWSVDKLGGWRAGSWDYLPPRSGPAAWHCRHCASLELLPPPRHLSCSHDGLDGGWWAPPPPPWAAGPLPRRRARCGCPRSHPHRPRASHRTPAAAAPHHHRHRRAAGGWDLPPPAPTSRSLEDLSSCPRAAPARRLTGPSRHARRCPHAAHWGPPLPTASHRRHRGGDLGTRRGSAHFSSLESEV
Description: as §1, §2

[4] = molecular target: T2, Serotonin 5-HT2C (Homo sapiens, UniProt P28335); assay: Radioligand displacement binding assay, [3H]mesulergine, 5-HT2C
T2 construct: host or cells: CHO-K1
T2 sequence (P28335 33-458): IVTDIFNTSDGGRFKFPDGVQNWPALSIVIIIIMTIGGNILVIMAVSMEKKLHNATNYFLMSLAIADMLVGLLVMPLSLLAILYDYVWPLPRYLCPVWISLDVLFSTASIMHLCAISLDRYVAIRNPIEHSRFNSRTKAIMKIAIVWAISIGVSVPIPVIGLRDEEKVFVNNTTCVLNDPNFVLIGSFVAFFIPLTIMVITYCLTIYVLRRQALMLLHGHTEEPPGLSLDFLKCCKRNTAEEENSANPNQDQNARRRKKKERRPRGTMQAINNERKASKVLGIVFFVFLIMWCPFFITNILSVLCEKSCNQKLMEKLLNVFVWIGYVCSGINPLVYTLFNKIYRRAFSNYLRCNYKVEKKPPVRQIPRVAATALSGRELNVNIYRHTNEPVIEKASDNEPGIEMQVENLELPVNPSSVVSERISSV

[5] = molecular target: T3, Serotonin 5-HT5A (Homo sapiens, UniProt P47898); assay: Radioligand displacement binding assay, [3H]LSD, 5-HT5A
T3 construct: host or cells: CHO-K1

[6] = molecular target: T4, Serotonin 5-HT2A (Homo sapiens, UniProt P28223); assay: Radioligand displacement binding assay, [3H]ketanserin, 5-HT2A
T4 construct: host or cells: CHO-K1
T4 sequence (P28223 whole entry): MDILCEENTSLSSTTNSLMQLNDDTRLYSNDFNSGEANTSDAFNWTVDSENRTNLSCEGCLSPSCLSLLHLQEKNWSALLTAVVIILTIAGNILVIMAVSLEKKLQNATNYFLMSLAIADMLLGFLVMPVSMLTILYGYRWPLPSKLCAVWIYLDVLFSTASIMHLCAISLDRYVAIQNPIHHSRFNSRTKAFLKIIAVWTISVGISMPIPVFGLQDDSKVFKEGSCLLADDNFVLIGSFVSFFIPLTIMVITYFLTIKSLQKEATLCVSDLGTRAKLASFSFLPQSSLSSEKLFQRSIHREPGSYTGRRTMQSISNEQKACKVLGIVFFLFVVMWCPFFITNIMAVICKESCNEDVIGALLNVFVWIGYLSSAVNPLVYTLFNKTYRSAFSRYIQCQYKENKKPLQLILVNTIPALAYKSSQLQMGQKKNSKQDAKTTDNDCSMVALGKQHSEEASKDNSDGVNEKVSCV

[7] = test system: Glutamate, NMDA, Phencyclidine binding site; assay: Radioligand displacement binding assay, [3H]TCP, NMDA; set-up: species or system Wistar rat
[8] = molecular target: T5, μ opioid receptor (MOP) (Homo sapiens, UniProt P35372); assay: biochemical; assay type: binding; settings: read-out: % inhibition of binding, MOP
T5 construct: host or cells: CHO-K1

[9] = molecular target: T6, Histamine H1 (Homo sapiens, UniProt P35367); assay: Radioligand displacement binding assay, [3H]pyrilamine, H1; settings: for displacement at the histamine H1 receptor, in words: concentration not given
T6 construct: host or cells: CHO-K1
T6 sequence (P35367 whole entry): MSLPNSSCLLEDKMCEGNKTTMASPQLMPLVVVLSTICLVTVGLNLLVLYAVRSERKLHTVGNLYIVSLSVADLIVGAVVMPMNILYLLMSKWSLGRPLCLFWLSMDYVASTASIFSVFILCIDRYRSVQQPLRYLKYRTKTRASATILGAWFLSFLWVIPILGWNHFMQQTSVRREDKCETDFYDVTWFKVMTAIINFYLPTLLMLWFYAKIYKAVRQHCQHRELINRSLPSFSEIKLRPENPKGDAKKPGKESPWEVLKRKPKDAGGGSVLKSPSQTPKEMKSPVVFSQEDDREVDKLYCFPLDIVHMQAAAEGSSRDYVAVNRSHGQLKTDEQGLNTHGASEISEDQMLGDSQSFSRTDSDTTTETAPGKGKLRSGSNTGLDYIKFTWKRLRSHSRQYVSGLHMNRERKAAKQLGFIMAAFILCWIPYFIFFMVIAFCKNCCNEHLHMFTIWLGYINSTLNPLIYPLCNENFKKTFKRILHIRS

[10] = molecular target: T7, Norepinephrine transporter NET (Homo sapiens, UniProt P23975); assay: Radioligand displacement binding assay, [125I]RTI-55, NET
T7 construct: host or cells: MDCK
T7 sequence (P23975 whole entry): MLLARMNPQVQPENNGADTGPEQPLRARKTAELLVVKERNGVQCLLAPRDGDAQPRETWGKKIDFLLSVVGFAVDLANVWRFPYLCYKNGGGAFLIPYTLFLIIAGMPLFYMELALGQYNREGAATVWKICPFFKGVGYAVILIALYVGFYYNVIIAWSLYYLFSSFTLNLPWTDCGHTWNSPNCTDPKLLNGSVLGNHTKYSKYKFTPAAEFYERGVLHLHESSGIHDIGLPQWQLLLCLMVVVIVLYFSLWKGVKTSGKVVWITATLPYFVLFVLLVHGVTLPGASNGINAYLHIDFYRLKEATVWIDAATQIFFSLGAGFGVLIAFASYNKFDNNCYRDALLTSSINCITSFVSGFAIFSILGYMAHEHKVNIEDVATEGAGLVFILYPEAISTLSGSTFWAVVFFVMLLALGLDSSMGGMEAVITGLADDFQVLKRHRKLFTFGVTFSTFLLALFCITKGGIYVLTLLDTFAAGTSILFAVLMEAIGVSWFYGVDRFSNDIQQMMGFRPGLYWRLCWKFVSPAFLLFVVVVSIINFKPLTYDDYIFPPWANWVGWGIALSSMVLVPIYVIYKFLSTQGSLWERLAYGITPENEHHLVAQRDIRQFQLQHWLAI

[11] = molecular target: T8, Serotonin 5-HT7 (Homo sapiens, UniProt P34969); assay: Radioligand displacement binding assay, [3H]LSD, 5-HT7
T8 construct: host or cells: CHO-K1

[12] = molecular target: GluN1-GluN2A NMDAR subtype (Homo sapiens, UniProt Q05586+Q12879); assay: FLIPR/Ca2+ assay, NMDAR GluN1-GluN2A subtype in CHO cells; assay type: cell-based; settings: CHO cells, 10 μM L-glutamate and 10 μM glycine; n.d. = 50% of inhibition could not be reached at the highest concentration used
Description: as §1, §2

[13] = molecular target: T9, Serotonin transporter SERT (Homo sapiens, UniProt P31645); assay: Radioligand displacement binding assay, [3H]paroxetine, SERT
T9 construct: host or cells: HEK-293
T9 sequence (P31645 whole entry): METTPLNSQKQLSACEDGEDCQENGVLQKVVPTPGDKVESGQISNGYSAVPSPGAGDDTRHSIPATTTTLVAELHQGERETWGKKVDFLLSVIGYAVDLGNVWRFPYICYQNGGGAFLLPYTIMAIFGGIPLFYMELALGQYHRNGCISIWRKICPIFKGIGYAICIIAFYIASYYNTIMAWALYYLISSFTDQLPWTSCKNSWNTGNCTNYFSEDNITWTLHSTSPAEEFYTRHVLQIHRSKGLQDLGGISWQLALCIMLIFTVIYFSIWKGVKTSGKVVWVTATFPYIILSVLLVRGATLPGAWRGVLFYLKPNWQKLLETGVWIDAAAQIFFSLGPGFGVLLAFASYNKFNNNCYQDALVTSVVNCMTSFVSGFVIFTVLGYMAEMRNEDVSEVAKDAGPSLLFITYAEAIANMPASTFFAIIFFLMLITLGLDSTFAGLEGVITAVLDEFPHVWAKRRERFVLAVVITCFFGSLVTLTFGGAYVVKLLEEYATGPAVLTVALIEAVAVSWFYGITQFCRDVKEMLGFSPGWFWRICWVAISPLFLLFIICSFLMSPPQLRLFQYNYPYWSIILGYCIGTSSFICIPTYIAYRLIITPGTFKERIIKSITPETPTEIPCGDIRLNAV

[14] = molecular target: T10, Serotonin 5-HT1A (Homo sapiens, UniProt P08908); assay: Radioligand displacement binding assay, [3H]8-OH-DPAT, 5-HT1A
T10 construct: host or cells: CHO-K1
T10 sequence (P08908 1-422): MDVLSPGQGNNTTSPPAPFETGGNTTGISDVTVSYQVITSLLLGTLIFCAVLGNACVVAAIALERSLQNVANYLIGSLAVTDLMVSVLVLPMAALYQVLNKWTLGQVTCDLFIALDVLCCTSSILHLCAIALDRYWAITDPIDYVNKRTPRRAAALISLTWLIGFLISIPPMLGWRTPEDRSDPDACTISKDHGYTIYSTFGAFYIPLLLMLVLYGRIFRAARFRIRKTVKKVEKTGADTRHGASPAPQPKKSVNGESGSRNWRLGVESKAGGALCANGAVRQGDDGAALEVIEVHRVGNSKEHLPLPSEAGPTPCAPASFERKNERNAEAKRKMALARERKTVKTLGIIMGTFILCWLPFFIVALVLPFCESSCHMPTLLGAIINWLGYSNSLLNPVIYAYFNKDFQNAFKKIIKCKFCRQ

[15] = molecular target: T11, Muscarinic M5 (Homo sapiens, UniProt P08912); assay: Radioligand displacement binding assay, [3H]N-methylscopolamine, M5
T11 construct: host or cells: CHO-K1
T11 sequence (P08912 1-532): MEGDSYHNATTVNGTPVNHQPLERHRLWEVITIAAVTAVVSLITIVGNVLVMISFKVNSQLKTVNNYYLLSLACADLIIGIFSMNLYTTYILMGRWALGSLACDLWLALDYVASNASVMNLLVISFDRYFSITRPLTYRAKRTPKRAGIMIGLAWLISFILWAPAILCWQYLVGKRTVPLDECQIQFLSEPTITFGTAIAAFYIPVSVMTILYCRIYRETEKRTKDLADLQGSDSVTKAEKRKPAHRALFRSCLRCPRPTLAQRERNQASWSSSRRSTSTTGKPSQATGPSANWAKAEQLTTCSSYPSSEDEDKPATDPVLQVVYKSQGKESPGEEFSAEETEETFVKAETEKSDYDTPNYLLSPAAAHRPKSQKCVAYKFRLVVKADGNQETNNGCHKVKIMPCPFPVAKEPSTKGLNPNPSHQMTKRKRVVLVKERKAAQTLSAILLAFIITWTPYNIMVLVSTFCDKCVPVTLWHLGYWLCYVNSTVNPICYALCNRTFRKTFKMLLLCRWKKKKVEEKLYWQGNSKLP

[16] = molecular target: T12, Sigma σ1 (Homo sapiens, UniProt Q99720); assay: Radioligand displacement binding assay, [3H]pentazocine, sigma σ1
T12 construct: Sigma σ1; Source: Human Jurkat cells; host or cells: Jurkat
T12 sequence (Q99720 whole entry): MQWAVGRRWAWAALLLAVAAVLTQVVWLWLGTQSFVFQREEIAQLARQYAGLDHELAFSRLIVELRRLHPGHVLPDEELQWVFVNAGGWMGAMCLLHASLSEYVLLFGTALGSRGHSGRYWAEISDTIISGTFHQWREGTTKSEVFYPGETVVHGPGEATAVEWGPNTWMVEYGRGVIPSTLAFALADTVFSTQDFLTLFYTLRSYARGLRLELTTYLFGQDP

GluN1-GluN2C NMDAR subtype, sequence (Q14957 20-1233, other chains not shown): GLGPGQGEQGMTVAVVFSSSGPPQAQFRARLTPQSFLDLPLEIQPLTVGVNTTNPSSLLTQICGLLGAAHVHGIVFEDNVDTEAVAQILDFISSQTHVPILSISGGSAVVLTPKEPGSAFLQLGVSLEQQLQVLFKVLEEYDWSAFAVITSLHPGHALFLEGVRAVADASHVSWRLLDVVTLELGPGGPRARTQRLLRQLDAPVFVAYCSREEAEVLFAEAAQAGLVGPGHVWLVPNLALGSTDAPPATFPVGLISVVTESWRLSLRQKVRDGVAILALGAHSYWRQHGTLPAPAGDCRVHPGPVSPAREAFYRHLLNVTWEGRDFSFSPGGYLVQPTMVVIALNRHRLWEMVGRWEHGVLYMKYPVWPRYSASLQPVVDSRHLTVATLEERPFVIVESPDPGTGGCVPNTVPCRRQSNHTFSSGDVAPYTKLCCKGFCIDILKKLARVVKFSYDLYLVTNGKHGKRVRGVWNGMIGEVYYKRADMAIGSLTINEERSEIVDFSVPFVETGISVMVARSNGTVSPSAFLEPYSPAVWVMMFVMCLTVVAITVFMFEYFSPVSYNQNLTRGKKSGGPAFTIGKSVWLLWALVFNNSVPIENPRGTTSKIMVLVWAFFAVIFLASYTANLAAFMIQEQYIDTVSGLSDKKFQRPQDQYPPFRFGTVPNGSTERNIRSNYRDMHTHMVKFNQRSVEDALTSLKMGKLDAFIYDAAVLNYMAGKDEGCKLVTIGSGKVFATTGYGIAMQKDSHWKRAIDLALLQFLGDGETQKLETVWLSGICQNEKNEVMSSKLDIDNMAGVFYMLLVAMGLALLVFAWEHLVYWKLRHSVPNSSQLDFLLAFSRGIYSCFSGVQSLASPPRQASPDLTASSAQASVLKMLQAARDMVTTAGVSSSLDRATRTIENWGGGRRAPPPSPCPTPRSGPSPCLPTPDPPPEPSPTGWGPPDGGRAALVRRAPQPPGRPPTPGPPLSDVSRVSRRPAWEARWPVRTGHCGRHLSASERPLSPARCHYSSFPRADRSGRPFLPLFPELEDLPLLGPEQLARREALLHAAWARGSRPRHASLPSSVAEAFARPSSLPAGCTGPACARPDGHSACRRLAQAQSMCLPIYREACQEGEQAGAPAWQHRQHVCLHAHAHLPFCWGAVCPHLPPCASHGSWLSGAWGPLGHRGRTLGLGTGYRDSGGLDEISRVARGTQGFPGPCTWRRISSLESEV

| SMILES | pIC50 (mean ± SEM) GluN1-GluN2C [1] | pIC50 (mean ± SEM) GluN1-GluN2D [3] | inhibition at 0.3 µM [4] [%] | inhibition at 3 µM [4] [%] | inhibition at 1 µM [5] [%] | inhibition at 10 µM [5] [%] | inhibition at 0.3 µM [6] [%] | inhibition at 3 µM [6] [%] | inhibition at 10 µM [9] [%] | inhibition at 30 µM [9] [%] | displacement at the histamine H1 receptor, in words [9] | inhibition at 1 µM [10] [%] | inhibition at 10 µM [10] [%] | inhibition at 1 µM [11] [%] | inhibition at 10 µM [11] [%] | inhibition at 1 µM [13] [%] | inhibition at 10 µM [13] [%] | inhibition at 0.3 µM [14] [%] | inhibition at 3 µM [14] [%] | inhibition at 1 µM [15] [%] | also measured |
| --- | --- | --- | --- | --- | --- | --- | --- | --- | --- | --- | --- | --- | --- | --- | --- | --- | --- | --- | --- | --- | --- |
| C[C@]12N[C@H](Cc3ccccc31)c1ccccc12 [(+)-MK-801, reference compound] | 6.2 ± 0.064 | 6.1 ± 0.58 |  |  |  |  |  |  |  |  |  |  |  |  |  |  |  |  |  |  | pIC50 (mean ± SEM) GluN1-GluN2B [2]: 7.2 ± 0.067 |
| CCC1=[N+](C)[C@H](C)CC1(c1ccccc1)c1ccccc1.[Cl-] [(R)-EDDP, 2-Ethyl-1,5-dimethyl-3,3-diphenyl-3,4-dihydro-5H-pyrrolium chloride] | 4.3 ± 0.056 | 4.3 ± 0.060 |  |  |  |  |  |  |  |  |  |  |  |  |  |  |  |  |  |  |  |
| CCC1=N[C@H](C)CC1(c1ccccc1)c1ccccc1 [(R)-EMDP, 5-Ethyl-2-methyl-4,4-diphenyl-3,4-dihydro-2H-pyrrole] |  |  | 2 | 7 | 1 | 0 | 4 | 14 | 24 | 62 | significant displacement percentages | -5 | 27 | 0 | 8 | 3 | 7 | 0 | 7 | 6 | % inhibition of binding, NMDA ([7]; 1 μM): 12%; % inhibition of binding, NMDA ([7]; 10 μM): 4%; inhibition at 0.3 µM ([8]; 0.3 μM): -4%; inhibition at 3 µM ([8]; 3 μM): 8%; pIC50 (mean ± SEM) GluN1-GluN2A [12]: 4.8 ± 0.088; inhibition at 10 µM [15]: 3%; inhibition at 0.3 µM [16]: 11%; inhibition at 3 µM [16]: 49% |
| CCC1=N[C@@H](C)CC1(c1ccccc1)c1ccccc1 [(S)-EMDP, 5-Ethyl-2-methyl-4,4-diphenyl-3,4-dihydro-2H-pyrrole] |  |  |  |  |  |  |  |  |  |  |  |  |  |  |  |  |  |  |  |  | IC50 ([1]; read-out: pIC50 (mean ± SEM) GluN1-GluN2C (converted)): > 100 µM; IC50 ([2]; read-out: pIC50 (mean ± SEM) GluN1-GluN2B (converted)): > 100 µM; IC50 ([3]; read-out: pIC50 (mean ± SEM) GluN1-GluN2D (converted)): > 100 µM |
| CCC(=O)C(C[C@H](C)N(C)C)(c1ccccc1)c1ccccc1 [(S)-methadone, 6-(Dimethylamino)-4,4-diphenylheptan-3-one, reference compound] |  |  | 30 | 77 | 24 | 70 | 22 | 72 | 50 | 73 | significant displacement percentages | 5 | 17 | 12 | 58 | 21 | 74 | -2 | 2 | 25 | activity on 5-HT2A, in words ([6]; concentration not given): appreciable activity; inhibition at 10 µM [15]: 73%; inhibition at 0.3 µM [16]: 23%; inhibition at 3 µM [16]: 70% |
